What was measured:
Type in all cases: functional
[1] = Antioxidant activity assessed as hydrogen peroxide radical scavenging activity after 10 mins by spectrophotometry relative to control; set-up: concentration or dose not given beside the values
[2] = Antioxidant activity assessed as hydrogen peroxide radical scavenging activity by spectrophotometry relative to control; set-up: concentration or dose not given beside the values
[3] = tested on: Radical scavenging activity; assay: Antioxidant activity assessed as DPPH radical scavenging activity at 50 ug by spectrophotometry relative to control
[4] = Antioxidant activity assessed as hydrogen peroxide radical scavenging activity after 20 mins by spectrophotometry relative to control; set-up: concentration or dose not given beside the values
[5] = Antioxidant activity assessed as hydrogen peroxide radical scavenging activity after 30 mins by spectrophotometry relative to control; set-up: concentration or dose not given beside the values
[6] = tested on: Radical scavenging activity; assay: Antioxidant activity assessed as DPPH radical scavenging activity at 1000 ug by spectrophotometry relative to control
[7] = tested on: Staphylococcus aureus; assay: Antibacterial activity against Staphylococcus aureus ATCC 25923 at 1000 ug/ml after 24 hrs by cup plate method; settings: ATCC 25923, 24 h, read-out: IZ
[8] = tested on: Candida albicans; assay: Antifungal activity against Candida albicans ATCC 10231 at 1000 ug/ml after 24 hrs by cup plate method; settings: ATCC 10231, 24 h, read-out: IZ
[9] = tested on: Escherichia coli; assay: Antibacterial activity against Escherichia coli ATCC 25922 at 1000 ug/ml after 24 hrs by cup plate method; settings: ATCC 25922, 24 h, read-out: IZ
[10] = Antioxidant activity assessed as hydrogen peroxide radical scavenging activity after 40 mins by spectrophotometry relative to control; set-up: concentration or dose not given beside the values
[11] = tested on: Radical scavenging activity; assay: Antioxidant activity assessed as DPPH radical scavenging activity at 500 ug by spectrophotometry relative to control

SMILES	Activity [1]	Activity [2]	Activity [3]	Activity [4]	Activity [5]	Activity [6]	zone of inhibition at 1000 µg/mL [7]	zone of inhibition at 1000 µg/mL [8]	zone of inhibition at 1000 µg/mL [9]	Activity [10]	Activity [11]
Brc1cc2c(cc1C(c1c(-c3ccccc3)[nH]c3ccccc13)c1c(-c3ccccc3)[nH]c3ccccc13)OCO2	43%	57%	10%	39%	30%	42%	25 mm	24 mm	23 mm	21%	23%
Brc1cccc(-c2cc(-c3ccccc3)c3ccccc3n2)c1							14 mm	10 mm	12 mm		
c1ccc(-c2ccc(C(c3c(-c4ccccc4)[nH]c4ccccc34)c3c(-c4ccccc4)[nH]c4ccccc34)cc2)cc1	83%	87%	22%	75%	70%	75%	26 mm	25 mm	26 mm	59%	55%
CCCCc1cc(-c2ccccc2)c2ccccc2n1							20 mm	15 mm	19 mm		
Cc1ccc(-c2cc(-c3ccccc3)c3ccccc3n2)cc1							24 mm	19 mm	17 mm		
Cc1ccc(-c2cc(-c3ccccc3)c3cc(Cl)ccc3n2)cc1							22 mm	23 mm	22 mm		
C[C@@H]1[C@H](O)[C@@H](C)/C=C/C=C/C=C/C=C/C=C/C=C/C=C/[C@H](O[C@@H]2O[C@H](C)[C@@H](O)[C@H](N)[C@@H]2O)C[C@@H]2O[C@](O)(C[C@@H](O)C[C@@H](O)[C@H](O)CC[C@@H](O)C[C@@H](O)CC(=O)O[C@H]1C)C[C@H](O)[C@H]2C(=O)O [AMPHOTERICIN B]								20 mm			
COc1cc(Br)c(C(c2c(-c3ccccc3)[nH]c3ccccc23)c2c(-c3ccccc3)[nH]c3ccccc23)cc1OC	85%	86%	21%	74%	72%	69%	12 mm	16 mm	14 mm	69%	52%
Cc1ccccc1-c1cc(-c2ccccc2)c2ccccc2n1							15 mm	15 mm	18 mm		
Clc1nc2ccccc2cc1C(c1c(-c2ccccc2)[nH]c2ccccc12)c1c(-c2ccccc2)[nH]c2ccccc12	83%	84%	2%	80%	73%	35%	18 mm	18 mm	15 mm	68%	12%
CCn1c2ccccc2c2cc(C(c3c(-c4ccccc4)[nH]c4ccccc34)c3c(-c4ccccc4)[nH]c4ccccc34)ccc21	80%	85%	15%	82%	75%	73%	24 mm	24 mm	23 mm	65%	42%
c1ccc(-c2cc(-c3ccccc3)c3ccccc3n2)cc1							18 mm	13 mm	17 mm		
O=C(O)c1ccc(C(c2c(-c3ccccc3)[nH]c3ccccc23)c2c(-c3ccccc3)[nH]c3ccccc23)cc1	45%	60%	17%	45%	35%	80%	24 mm	16 mm	19 mm	24%	48%
c1ccc(-c2cc(-c3ccccn3)nc3ccccc23)cc1							23 mm	18 mm	18 mm		
c1ccc(-c2[nH]c3ccccc3c2C(c2ccc3c(c2)-c2ccccc2C3)c2c(-c3ccccc3)[nH]c3ccccc23)cc1	85%	88%	19%	76%	73%	85%	24 mm	18 mm	18 mm	70%	66%
COc1cc(C(c2c(-c3ccccc3)[nH]c3ccccc23)c2c(-c3ccccc3)[nH]c3ccccc23)cc(Br)c1O	81%	82%	27%	74%	71%	70%	22 mm	26 mm	24 mm	65%	64%
O=C1O[C@H]([C@@H](O)CO)C(O)=C1O			96%			99%					97%
COc1cccc(-c2cc(-c3ccccc3)c3ccccc3n2)c1							21 mm	14 mm	23 mm		
Clc1ccc2nc(-c3ccccc3)cc(-c3ccccc3)c2c1							21 mm	16 mm	18 mm		
Cc1cc(C(C)(C)C)c(O)c(C(C)(C)C)c1	86%	92%		83%	82%					80%	
CCCCCc1ccc(-c2cc(C)c3ccccc3n2)cc1							21 mm	18 mm	18 mm		
Cn1c(C(c2c(-c3ccccc3)[nH]c3ccccc23)c2c(-c3ccccc3)[nH]c3ccccc23)cc2ccccc21	35%	43%	19%	21%	20%	76%	13 mm	14 mm	16 mm	16%	63%
Cc1ccc2nc(-c3cccc(Br)c3)cc(-c3ccccc3)c2c1							24 mm	21 mm	22 mm		
Clc1ccc(-c2nn(-c3ccccc3)cc2C(c2c(-c3ccccc3)[nH]c3ccccc23)c2c(-c3ccccc3)[nH]c3ccccc23)cc1	82%	83%	21%	81%	80%	87%	19 mm	12 mm	15 mm	79%	65%
Cc1cc(-c2ccccc2)nc2ccccc12							14 mm	16 mm	20 mm		
c1ccc(-c2[nH]c3ccccc3c2C(c2cccc3ccccc23)c2c(-c3ccccc3)[nH]c3ccccc23)cc1	84%	93%	25%	82%	77%	76%	23 mm	10 mm	16 mm	71%	58%
